Laboratory results published in PMC4115637 (Pharmacology Research & Perspectives, 2014).

Columns and labels:
Assay type in all cases: cell-based
[1] = target: T1, TRPV3-H426N (Homo sapiens, UniProt Q8NET8, H426N); assay: Calcium flux in HEK-293 cells transiently transfected with TRPV3-H426N
T1 sequence (Q8NET8 1-790 H426N): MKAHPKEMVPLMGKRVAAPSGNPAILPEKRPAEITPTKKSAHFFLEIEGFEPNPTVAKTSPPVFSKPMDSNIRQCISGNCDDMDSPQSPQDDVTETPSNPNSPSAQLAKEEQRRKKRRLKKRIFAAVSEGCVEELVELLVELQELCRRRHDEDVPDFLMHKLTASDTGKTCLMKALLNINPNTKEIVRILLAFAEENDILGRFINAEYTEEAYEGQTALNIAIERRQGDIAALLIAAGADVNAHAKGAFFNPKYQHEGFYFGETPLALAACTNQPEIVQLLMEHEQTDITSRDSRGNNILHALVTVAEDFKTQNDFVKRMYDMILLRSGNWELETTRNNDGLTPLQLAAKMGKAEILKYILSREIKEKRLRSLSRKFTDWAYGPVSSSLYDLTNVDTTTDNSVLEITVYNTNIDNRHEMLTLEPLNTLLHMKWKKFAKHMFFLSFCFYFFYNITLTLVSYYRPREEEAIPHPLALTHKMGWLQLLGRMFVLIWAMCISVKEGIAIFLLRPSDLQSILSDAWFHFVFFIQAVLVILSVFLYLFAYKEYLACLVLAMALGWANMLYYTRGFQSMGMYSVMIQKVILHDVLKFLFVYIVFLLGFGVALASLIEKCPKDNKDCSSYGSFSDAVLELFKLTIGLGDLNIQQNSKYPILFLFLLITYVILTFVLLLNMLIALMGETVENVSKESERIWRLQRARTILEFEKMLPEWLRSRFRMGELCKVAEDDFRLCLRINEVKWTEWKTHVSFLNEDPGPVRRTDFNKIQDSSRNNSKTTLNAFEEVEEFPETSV

[2] = target: T2, human TRPV2 (Homo sapiens, UniProt Q9Y5S1); assay: Calcium flux in HEK-293 cells overexpressing TRPV2; settings: concentrations up to 1 mmol/L
T2 sequence (Q9Y5S1 1-764): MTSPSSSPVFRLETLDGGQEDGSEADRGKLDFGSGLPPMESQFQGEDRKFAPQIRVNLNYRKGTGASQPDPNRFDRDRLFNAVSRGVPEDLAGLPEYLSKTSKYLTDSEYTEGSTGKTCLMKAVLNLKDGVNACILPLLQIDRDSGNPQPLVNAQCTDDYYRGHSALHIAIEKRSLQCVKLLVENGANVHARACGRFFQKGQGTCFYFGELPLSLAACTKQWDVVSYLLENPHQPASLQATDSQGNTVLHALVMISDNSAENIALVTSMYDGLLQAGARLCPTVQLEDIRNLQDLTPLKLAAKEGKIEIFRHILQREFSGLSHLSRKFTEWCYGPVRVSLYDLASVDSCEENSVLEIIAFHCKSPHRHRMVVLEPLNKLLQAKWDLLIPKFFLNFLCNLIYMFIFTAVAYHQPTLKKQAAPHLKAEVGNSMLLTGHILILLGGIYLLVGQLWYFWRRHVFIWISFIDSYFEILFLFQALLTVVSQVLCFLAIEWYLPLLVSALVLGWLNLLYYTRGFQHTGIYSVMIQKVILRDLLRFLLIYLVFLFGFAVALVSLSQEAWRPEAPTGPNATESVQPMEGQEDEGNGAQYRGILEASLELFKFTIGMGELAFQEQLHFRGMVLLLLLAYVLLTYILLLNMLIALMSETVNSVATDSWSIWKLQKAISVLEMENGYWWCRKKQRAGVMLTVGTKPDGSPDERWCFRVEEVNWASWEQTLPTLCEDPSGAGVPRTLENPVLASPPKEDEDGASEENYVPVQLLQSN

[3] = target: human TRPV1 (Homo sapiens, UniProt Q8NER1); assay: Calcium flux in HEK-293 cells overexpressing TRPV1; settings: concentrations up to 1 mmol/L
human TRPV1, sequence (Q8NER1 whole entry): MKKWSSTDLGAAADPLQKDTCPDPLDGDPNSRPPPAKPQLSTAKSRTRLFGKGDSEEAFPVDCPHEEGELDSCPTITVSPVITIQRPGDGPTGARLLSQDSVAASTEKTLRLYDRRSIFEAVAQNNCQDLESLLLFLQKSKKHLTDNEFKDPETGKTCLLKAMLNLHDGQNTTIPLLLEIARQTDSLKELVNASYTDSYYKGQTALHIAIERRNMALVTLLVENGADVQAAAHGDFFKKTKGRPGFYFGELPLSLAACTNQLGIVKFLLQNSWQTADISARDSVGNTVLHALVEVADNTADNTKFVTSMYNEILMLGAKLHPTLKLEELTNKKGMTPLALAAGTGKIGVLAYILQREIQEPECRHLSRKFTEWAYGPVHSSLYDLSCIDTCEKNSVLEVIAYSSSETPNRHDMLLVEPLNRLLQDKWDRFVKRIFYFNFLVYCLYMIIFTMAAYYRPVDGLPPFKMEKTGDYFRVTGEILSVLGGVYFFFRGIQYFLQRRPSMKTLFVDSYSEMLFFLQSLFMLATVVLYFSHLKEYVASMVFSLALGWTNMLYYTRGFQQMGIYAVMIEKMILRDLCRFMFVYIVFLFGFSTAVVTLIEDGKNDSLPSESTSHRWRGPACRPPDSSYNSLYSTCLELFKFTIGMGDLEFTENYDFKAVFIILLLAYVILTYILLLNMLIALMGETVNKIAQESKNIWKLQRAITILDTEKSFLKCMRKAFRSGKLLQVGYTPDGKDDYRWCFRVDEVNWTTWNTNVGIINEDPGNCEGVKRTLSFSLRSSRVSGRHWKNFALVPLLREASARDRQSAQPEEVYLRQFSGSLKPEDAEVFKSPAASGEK

CCN(CC)CCOC(=O)C(c1ccccc1)C1CCCCC1 (stereo not shown) [drofenine]
calcium flux in TRPV3-H426N relative to TRPV3-WT ([1]; agonist 100 μmol/L): reduced activation relative to TRPV3-WT
calcium flux in TRPV3-H426N relative to TRPV3-WT ([1]; agonist 200 μmol/L): did not reduce TRPV3 activation
activation of TRPV2 [2]: not observed
activation of TRPV1 [3]: not observed
